# Source: paper PMC12498136, “Synthesis and biological evaluation of novel carnosic acid derivatives with anticancer activity” (RSC Advances, 2025)
# Legend:
# Assay type in all cases: cell-based
# SOD2/MnSOD = experiment: Western blot of SOD2/MnSOD levels in SW480 cells; settings: SW480, 6.3 μM, 24 and 72 h, relative to control
# Procedure: SW480 cells were seeded in 6-well plates and treated as described in the previous subsection. After 24, 48 or 72 h of incubation, adherent cells were washed twice with ice-cold DPBS and incubated with lysis buffer (0.2% Triton X-100, 0.5 mM sodium deoxycholate, 1 mM Na-EDTA, 1 mM DTT, 20 mM Tris–HCl (pH 7.5), 0.5% phosphatases inhibitor cocktail, and 1% proteases inhibitor cocktail) for 30 min at 4 °C. The cells were scraped, sonicated, and centrifuged at 120 00 × g (20 min at 4 °C). […] The gels were then transferred to PVDF membranes, which were blocked with 5% skim milk in PBS-Tween-20 (0.1%) for 1 h at room temperature. Subsequently, the membranes were incubated with the primary antibodies for 30 mi at room temperature (actin) or overnight at 4 °C (CDK4, CDK6, cyclin A, Rb and SOD2/MnSOD). After incubation, the membranes were washed with PBS-Tween-20 (0.1%) and incubated with anti-mouse secondary antibody (40 min) or anti-rabbit secondary antibody (1 h) at room temperature. Finally, the membranes were washed with PBS-Tween-20 (0.1%) and treated with the Immobilon Western Chemiluminescent HRP Substrate Kit, and autoradiography was performed using an FPM-100A film processor (Fujifilm, Tokyo, Japan). western blot results were obtained from three independent experiments, except for cyclin A at 24 h (n = 2), Rb protein at 24 and 72 h (n = 2), and SOD2 (MnSOD) at 72 h (n = 2).
# SW480 cells [1] = experiment: MTT cell viability assay in SW480 cells
# Procedure: (§1) The MTT assay was used to assess the effect of the compounds on cell viability. For this purpose, A375 (1500 cells per well), BJ (10 000 cells per well), Caco-2 (4000 cells per well), HCT116 (3000 cells per well), Mia Paca-2 (2000 cells per well), SW480 (6000 cells per well), and SW620 (8000 cells per well) cells were seeded in 96-well plates and incubated for 24 h. Subsequently, the culture medium was switched with a new medium containing DMSO (control) or the compound at a specified concentration. Following a 72 h incubation period, the supernatant was aspirated, and 100 μL of a mixture (1 : 1) of filtered MTT solution (1 mg per mL PBS) and FBS-free medium was added. The plates were then incubated for 1 h at 37 °C. After this time, the supernatant was aspirated, and the formazan crystals were dissolved in 100 μL of DMSO in each well. Relative cell viability was calculated by measuring absorbance at 570 nm using a Benchmark Plus Microplate Reader (Bio-Rad Laboratories, Hercules, CA, USA). Results are presented as the mean ± standard deviation (SD) of IC50 values, determined by nonlinear regression analysis of dose–response curves (log(inhibitor) vs. response with variable slope (four parameters)) using GraphPad Prism 9 software (GraphPad Software, San Diego, CA, USA).
# Caco-2 cells = experiment: MTT cell viability assay in Caco-2 cells; settings: Homo sapiens, Caco-2, 72 h, read-out: IC50 Caco-2
# Procedure: as §1
# Mia Paca-2 cells = experiment: MTT cell viability assay in Mia Paca-2 cells; settings: Homo sapiens, MIA PaCa-2, 72 h, read-out: IC50 Mia Paca-2
# Procedure: as §1
# BJ cells = experiment: MTT cell viability assay in non-tumoral BJ fibroblasts
# Procedure: as §1
# SW620 cells = experiment: MTT cell viability assay in SW620 cells; settings: Homo sapiens, SW-620, 72 h, read-out: IC50 SW620
# Procedure: as §1
# SW480 cells [2] = experiment: Apoptosis assay (annexin V-FITC/PI, flow cytometry); settings: SW480, 6.3 μM, 24, 48 or 72 h
# Procedure: Our objective was to assess whether the anticancer activity observed in SW480 cells treated with compound 17 results from the activation of apoptosis.
# SW480 cells were seeded at a density of 1.68 × 10^5 cells per well in 6-well plates and incubated at 37 °C. […] Adherent cells were harvested by trypsinization, and they were washed with DPBS and collected by centrifugation along with the cells in suspension. Cells were resuspended in 3 μL annexin V FITC and 95 μL binding buffer containing 140 mM NaCl, 2.5 mM CaCl2, and 10 mM HEPES/NaOH (pH 7.4). The cell suspension was then incubated in the dark, at room temperature for 30 min. The cells were then stained with 510 μL of a mixture containing 500 μL of binding buffer and 10 μL of PI solution (1 mg mL^−1). Finally, data from 1 × 10^4 cells were collected through fluorescence activated cell sorting (FACS) analysis using a Gallios flow cytometer (Beckman Coulter, Brea, CA, USA) at 488 nm.
# A375 cells = experiment: MTT cell viability assay in A375 cells; settings: Homo sapiens, A-375, 72 h, read-out: IC50 A375
# Procedure: as §1
# SW480 cells [3] = experiment: Cell cycle assay (PI, flow cytometry)
# Procedure: To validate this hypothesis, compound 17 was administered at 6.3 μM to SW480 cells and incubated for 24, 48, and 72 h. Following each incubation period, the cells were fixed and permeabilized with 70% cold ethanol and stained with PI before flow cytometry analysis. At 24 h, compound 17 caused cell cycle arrest at the G0/G1 phase, as evidenced by a significant increase in the percentage of SW480 cells, from 54% in the control group to 66% in the treated group (Fig. 6). […] At 72 h, compound 17 had no impact on the cell cycle of SW480 cells, as observed in Fig. 6.
# SW480 cells were seeded, treated, incubated, and collected, as described for the apoptosis assay. After centrifugation, the cells were resuspended in 500 μL DPBS, added dropwise to 4.5 mL of 70% (v/v) cold ethanol, and stored at −20 °C for at least 4 h. Each cell suspension was centrifuged, washed with cold DPBS, and resuspended in 350 μL DPBS and 10 μL RNase (10 mg mL^−1). After 1 h of incubation at 37 °C with agitation, the cells were stained with 20 μL of PI solution (1 mg mL^−1). A Gallios flow cytometer (Beckman Coulter, Brea, CA, USA) at a wavelength of 488 nm was used for FACS analysis. Data from 1 × 10^4 cells were collected, and a multicycle software (Phoenix Flow Systems, San Diego, CA, USA) was used for cell cycle analysis.
# [4] = SW480 cells, ratio of IC50 values
compound,measurement,setting,value
"CC(=O)Oc1c(C(C)C)cc2c(c1OC(C)=O)[C@@]1(NC(=O)OCC(C)C)CCCC(C)(C)[C@@H]1CC2 [Compound 17, (4bR,8aS)-8,8-Dimethyl-4b-{[(2-methylpropoxy)carbonyl]amino}-2-(propan-2-yl)-4b,5,6,7,8,8a,9,10-octahydrophenanthrene-3,4-diyl diacetate]",expression of SOD2/MnSOD,SOD2/MnSOD,significantly increased
same,IC50,"SW480 cells [1]; Homo sapiens, SW480, 72 h, read-out: IC50 SW480",6.3 ± 0.5 µM
same,fold more active than cisplatin,SW480 cells [1]; [4],2.4 fold
same,fold more potent than CA 1,SW480 cells [1]; [4],3.5 fold
same,IC50,Caco-2 cells,16 ± 2 µM
same,IC50,Mia Paca-2 cells,7.5 ± 0.6 µM
same,times less potent in BJ cells than in cancer cell lines (selectivity),BJ cells; BJ vs cancer cell lines,3–8 times
same,IC50,"BJ cells; Homo sapiens, BJ, MTT assay, 72 h incubation",> 50 µM
same,IC50,SW620 cells,10 ± 1 µM
same,induction of apoptosis,SW480 cells [2],did not induce apoptosis
same,IC50,A375 cells,6.7 ± 0.5 µM
same,percentage of SW480 cells in G0/G1 phase,"SW480 cells [3]; 6.3 μM, 24 h (control 54%)",66%
same,percentage of SW480 cells in S phase,"SW480 cells [3]; 6.3 μM, 48 h (control 30%)",40%
same,effect on the cell cycle,"SW480 cells [3]; SW480, 6.3 μM, 72 h",no impact
